Experimental data reported in PubChem BioAssay AID328 (DTP/NCI, 2004).
“And” between values parts separate entries of the source, which are not always exact repeats. Equal entries are not always repeated. Toxic doses and inconclusive results are not listed.

Tested on: BDF1 mice, P388 leukemia ip, median survival T/C
Assay: NCI In Vivo Anticancer Drug Screen. Data for tumor model P388 Leukemia (intraperitoneal) in B6D2F1 (BDF1) mice
Conditions: endpoint: median survival time, higher = longer survival
Procedure, shortened: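 Antitumour effect was judged in vivo: survival in drug-treated mice, normalised to that of vehicle-dosed controls, gives the reported T/C.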

[1] = dose: 50.0 mg/kg/injection, schedule: Q01DX009 (ip), vehicle: saline with Tween-80
[2] = dose: 100.0 mg/kg/injection, schedule: Q01DX009 (ip), vehicle: saline with Tween-80
[3] = dose: 200.0 mg/kg/injection, schedule: Q01DX009 (ip), vehicle: saline with Tween-80
[4] = dose: 25.0 mg/kg/injection, schedule: Q04DX003 (ip), vehicle: saline with Tween-80
[5] = dose: 400.0 mg/kg/injection, schedule: Q01DX009 (ip), vehicle: saline with Tween-80
[6] = dose: 100.0 mg/kg/injection, schedule: Q01DX009 (ip), vehicle: saline
[7] = dose: 100.0 mg/kg/injection, schedule: Q04DX003 (ip), vehicle: saline with Tween-80

SMILES: COc1ccc(C=Nc2ccc(OC(C)=O)cc2)cc1
- T/C (dose: 45.0 mg/kg/injection, schedule: Q01DX009 (ip), vehicle: Klucel (hydroxypropylcellulose) (HPC)): 105 % of control
- T/C [1]: 110 % of control
- T/C (dose: 65.0 mg/kg/injection, schedule: Q01DX009 (ip), vehicle: Klucel (hydroxypropylcellulose) (HPC)): 110 % of control
- T/C (dose: 100.0 mg/kg/injection, schedule: Q01DX009 (ip), vehicle: Klucel (hydroxypropylcellulose) (HPC)): 110 % of control
- T/C [2]: 100 % of control
- T/C (dose: 100.0 mg/kg/injection, schedule: Q04DX003 (ip), vehicle: saline): 104 % of control
- T/C (dose: 150.0 mg/kg/injection, schedule: Q01DX009 (ip), vehicle: Klucel (hydroxypropylcellulose) (HPC)): 105 % of control
- T/C (dose: 200.0 mg/kg/injection, schedule: Q01DX009 (ip), vehicle: Klucel (hydroxypropylcellulose) (HPC)): 115 % of control
- T/C (dose: 200.0 mg/kg/injection, schedule: Q01DX009 (ip), vehicle: other): 104 % of control
- T/C [3]: 120 % of control
- T/C (dose: 200.0 mg/kg/injection, schedule: Q04DX003 (ip), vehicle: saline): 118 % of control
- T/C (dose: 300.0 mg/kg/injection, schedule: Q01DX009 (ip), vehicle: Klucel (hydroxypropylcellulose) (HPC)): 120 % of control
- T/C (dose: 400.0 mg/kg/injection, schedule: Q01DX009 (ip), vehicle: other): 95 % of control
- T/C (dose: 400.0 mg/kg/injection, schedule: Q04DX003 (ip), vehicle: saline): 109 % of control

SMILES: CCOc1cc(C=Nc2cc(Cl)c(O)c(Cl)c2)ccc1N(CCCl)CCCl
- T/C (dose: 16.0 mg/kg/injection, schedule: Q04DX003 (ip), vehicle: saline with Tween-80): 154 % of control
- T/C (dose: 16.5 mg/kg/injection, schedule: Q04DX003 (ip), vehicle: saline with Tween-80): 157 % of control
- T/C [4]: 173 % of control
- T/C (dose: 37.5 mg/kg/injection, schedule: Q04DX003 (ip), vehicle: saline with Tween-80): 207 % of control

SMILES: CSC(=S)NN=C1CCCCC1
- T/C (dose: 0.78 mg/kg/injection, schedule: Q01DX009 (ip), vehicle: saline with Tween-80): 99 % of control
- T/C (dose: 1.56 mg/kg/injection, schedule: Q01DX009 (ip), vehicle: saline with Tween-80): 105 % of control
- T/C (dose: 3.13 mg/kg/injection, schedule: Q01DX009 (ip), vehicle: saline with Tween-80): 104 % of control
- T/C (dose: 6.25 mg/kg/injection, schedule: Q01DX009 (ip), vehicle: saline with Tween-80): 102 % of control

SMILES: CCOC(=O)C12CC=CC(CCC1)/C2=N\Nc1ccccc1 (stereo not given)
- T/C [2]: 90 % of control
- T/C [3]: 90 % of control
- T/C [5]: 117 % of control

SMILES: COC(=O)Nc1cccc(-c2nc3ccc(NC(=O)OC)cc3c(=O)n2-c2ccccc2)c1
- T/C (dose: 6.25 mg/kg/injection, schedule: Q01DX009 (ip), vehicle: Klucel (hydroxypropylcellulose) (HPC)): 108 % of control
- T/C (dose: 12.5 mg/kg/injection, schedule: Q01DX009 (ip), vehicle: Klucel (hydroxypropylcellulose) (HPC)): 117 % of control
- T/C (dose: 25.0 mg/kg/injection, schedule: Q01DX009 (ip), vehicle: saline): 150 % of control
- T/C (dose: 25.0 mg/kg/injection, schedule: Q01DX009 (oral), vehicle: Klucel (hydroxypropylcellulose) (HPC)): 107 % of control
- T/C (dose: 50.0 mg/kg/injection, schedule: Q01DX009 (ip), vehicle: Klucel (hydroxypropylcellulose) (HPC)): 213 % of control
- T/C (dose: 50.0 mg/kg/injection, schedule: Q01DX009 (ip), vehicle: saline): 155 % of control
- T/C (dose: 50.0 mg/kg/injection, schedule: Q01DX009 (oral), vehicle: Klucel (hydroxypropylcellulose) (HPC)): 109 % of control
- T/C [6]: 186 % of control
- T/C (dose: 100.0 mg/kg/injection, schedule: Q01DX009 (oral), vehicle: Klucel (hydroxypropylcellulose) (HPC)): 109 % of control
- T/C (dose: 800.0 mg/kg/injection, schedule: Q01DX009 (oral), vehicle: Klucel (hydroxypropylcellulose) (HPC)): 155 % of control

SMILES: C[n+]1cc2cc(O)c(O)cc2c2ccc3cc(O)c(O)cc3c21
- T/C (dose: 20.0 mg/kg/injection, schedule: Q01DX009 (ip), vehicle: saline): 104 % of control
- T/C (dose: 40.0 mg/kg/injection, schedule: Q01DX009 (ip), vehicle: saline): 96 % of control
- T/C (dose: 80.0 mg/kg/injection, schedule: Q01DX009 (ip), vehicle: saline): 91 % of control
- T/C (dose: 120.0 mg/kg/injection, schedule: Q01DX009 (ip), vehicle: saline): 86 % of control
- T/C (dose: 240.0 mg/kg/injection, schedule: Q01DX009 (ip), vehicle: saline): 106 % of control

SMILES: CCC(CCC(C)C1CCC2C3CC=C4CC(O)CCC4(C)C3CCC12C)C(C)C (stereo not given) (tested in a mixture with another compound)
- T/C (dose: 12.5 mg/kg/injection, schedule: Q#A X020 (ip), vehicle: water): 90 % of control

SMILES: O=C(O)c1ccccc1-c1ccccc1C(=O)O
- T/C [7]: 95 % of control
- T/C (dose: 200.0 mg/kg/injection, schedule: Q04DX003 (ip), vehicle: saline with Tween-80): 104 % of control
- T/C (dose: 400.0 mg/kg/injection, schedule: Q04DX003 (ip), vehicle: saline with Tween-80): 104 % of control

SMILES: CNc1ccccc1O
- T/C [1]: 102 % of control
- T/C [2]: 98 % of control
- T/C [3]: 95 % of control

SMILES: C=CCC1(CCC)C(=O)NC(=O)NC1=O
- T/C [4]: 91 % of control
- T/C (dose: 50.0 mg/kg/injection, schedule: Q04DX003 (ip), vehicle: saline with Tween-80): 91 % of control
- T/C [7]: 95 % of control

SMILES: Cn1c(N)nc2nc[nH]c2c1=S
- T/C (dose: 10.0 mg/kg/injection, schedule: Q01DX010 (ip), vehicle: saline): 91 % of control
- T/C (dose: 20.0 mg/kg/injection, schedule: Q01DX010 (ip), vehicle: saline): 91 % of control and 95 % of control
- T/C (dose: 40.0 mg/kg/injection, schedule: Q01DX010 (ip), vehicle: saline): 91 % of control and 100 % of control
- T/C (dose: 80.0 mg/kg/injection, schedule: Q01DX010 (ip), vehicle: saline): 91 % of control and 95 % of control

SMILES: NC(c1ccccc1)S(=O)(=O)O (stereo not given)
- T/C [1]: 115 % of control
- T/C [2]: 121 % of control
- T/C [3]: 93 % of control
- T/C [5]: 95 % of control

SMILES: c1ccc(C2C(c3ccnc4c3ccc3ccccc34)C(c3ccccc3)C2c2ccnc3c2ccc2ccccc23)cc1 (stereo not given)
- T/C (dose: 25.0 mg/kg/injection, schedule: Q01DX001 (ip), vehicle: Klucel (hydroxypropylcellulose) (HPC)): 93 % of control and 91 % of control
- T/C (dose: 50.0 mg/kg/injection, schedule: Q01DX001 (ip), vehicle: Klucel (hydroxypropylcellulose) (HPC)): 97 % of control and 100 % of control
- T/C (dose: 100.0 mg/kg/injection, schedule: Q01DX001 (ip), vehicle: Klucel (hydroxypropylcellulose) (HPC)): 100 % of control and 106 % of control

SMILES: CC(=O)c1c(C)cc(C(C)(C)C)cc1C
- T/C [6]: 109 % of control
- T/C (dose: 200.0 mg/kg/injection, schedule: Q01DX009 (ip), vehicle: saline): 100 % of control
- T/C (dose: 400.0 mg/kg/injection, schedule: Q01DX009 (ip), vehicle: saline): 109 % of control

SMILES: N#C/C(=C/c1ccccc1)CBr
- T/C (dose: 25.0 mg/kg/injection, schedule: Q01DX001 (ip), vehicle: saline with Tween-80): 102 % of control
- T/C (dose: 50.0 mg/kg/injection, schedule: Q01DX001 (ip), vehicle: saline with Tween-80): 93 % of control

SMILES: O=C1c2ccc(O)cc2C(=O)c2ccc(O)cc21
- T/C (dose: 66.0 mg/kg/injection, schedule: Q01DX009 (ip), vehicle: saline with Tween-80): 109 % of control
- T/C [2]: 109 % of control
- T/C (dose: 150.0 mg/kg/injection, schedule: Q01DX009 (ip), vehicle: saline with Tween-80): 109 % of control
- T/C [5]: 120 % of control
